Patent publication US20100239501A1, “GENE SENSITIVE TO BONE/JOINT DISEASE AND USE THEREOF” (RIKEN, priority 2007, published 2010)

Key:
Type in all cases: cell-based
[1] = tested on: rabbit synovial cell line (HIG-82); experiment: Inflammatory cytokine and MMP gene expression induction by LPA in rabbit synovial cell line
Method: EDG2 is a GPCR having lysophosphatidic acid (LPA) as a ligand thereof. For LPA, four receptors, including EDG2, have been reported (EDG2, EDG4, EDG7 and GPR23). To analyze the tissue distributions of these four LPA receptors, an expression quantitation analysis by quantitative real-time PCR in various human tissues was performed. On 500 ng of total RNA of each of various human tissues (Human Total RNA Master Panel, Clontech), reverse transcription was performed using Multiscribe reverse transcriptase (Applied biosystems) and a random hexamer, whereby a cDNA was obtained. Quantitation of the LPA receptor genes was performed using QuantiTect STBR Green PCR (Qiagen) on the ABI PRISM 7700 sequence detection system (Applied biosystems) as directed in the documentation attached. The number of copies of each gene was calculated using a working curve. The amount of each gene was standardized by being divided by the number of copies of the G3PDH gene. A Toyobo product was used as the primer for the G3PDH gene. […] In these organs, the amount of the EDG2 gene expressed was about 20 to 100 times as high as other LPA receptor genes; this gene is a dominant LPA receptor (FIG. 2). The EDG2 gene was also found to be expressed at moderate levels in the adrenal, cerebellum, lung, placenta, prostate, testis, thyroid, trachea, and uterus (FIG. 2). In these tissues, EDG2 was not always a dominant LPA receptor.
The inflammatory cytokine expression induction reaction of LPA in a rabbit synovial cell line was analyzed. The method used is described below. A rabbit synovial cell line (HIG-82) was purchased from ATCC. The HIG-82 was cultured using Ham's F-12 medium (Invitrogen) containing 10% fetal bovine serum (FBS) and antibiotics (100 U/ml penicillin G and 100 μg/ml streptomycin). The HIG-82 was seeded to a 24-well plate at a ratio of 1×10^5 cells/well, and cultured until they became confluent. Twelve hours before performing LPA stimulation, the medium was replaced with Ham's F-12 medium containing 0.1% fatty acid free bovine serum albumin (Sigma). In the time-related change analysis, 12 hours after the medium replacement, the cells were stimulated with 10 μM LPA; 0, 2, 4, 8, 12 and 24 hours later, total RNA was extracted using ISOGEN (Nippon Gene), and the amounts expressed of the TNFA and IL1B genes, which are inflammatory cytokine genes, and of the MMP1, MMP3 and MMP13 genes, which are MMP genes, were quantified by a method in accordance with Example 10 (n=4). In the dose dependency test, 12 hours after the medium replacement, the cells were stimulated with 0, 0.1, 1 and 10 μM LPA; 2 hours later, total RNA was extracted using ISOGEN (Nippon Gene), and the amounts expressed of the TNFA and IL1B genes, which are inflammatory cytokine genes, were quantified by the same method as with the time-related change test (n=4). As a result of the time-related change test of inflammatory cytokine genes with LPA stimulation, the amounts expressed of the TNFA and IL1B genes rose transiently, with peaks reached 2 hours later (FIGS. 9a and b). The amounts expressed of the MMP1, MMP3 and MMP13 genes, which are MMP genes, rose transiently, with peaks reached 4, 4 and 8 hours later, respectively. As a result of the dose dependency test, it was shown that LPA raised the expression of inflammatory cytokine genes dose-dependently. The amount expressed of the IL1B gene nearly reached a plateau at 1 μM, whereas the amount expressed of the TNFA gene rose dose-dependently up to 10 μM. The results above are well similar to the results for HFLS-OA shown in Example 17, showing that in HIG-82 cells as well, the expression of inflammatory cytokine genes is induced with LPA stimulation, and the expression of MMPs is induced paracrinely.

EDG2 = EDG2 (Homo sapiens, UniProt Q92633); experiment: Intracellular Ca2+ concentration (FLIPR tetra) in McA-RH7777 cells stably expressing EDG2; parameters: Dainippon Pharmaceutical Co., Ltd. (cells); host or cells: McA-RH7777; settings: 0.03 to 10 μM LPA
Method: A forcible expression vector comprising an ORF sequence of human EDG2 [hEDG2-pcDNA3.1(+)] was purchased from UMR cDNA Resource Center. This plasmid was introduced into McA-RH7777 (Dainippon Pharmaceutical Co., Ltd.) using Lipofectamine LTX (Invitrogen), and the cells were cultured in a medium containing Geneticin for 14 to 20 days to acquire cells that stably express EDG2.
Next, an evaluation was made using FLIPR tetra (Molecular Devices) to confirm that stimulation with LPA raised intracellular Ca concentrations via the EDG2 expressed. That is, these cells were seeded to a 384-well plate, 0.03 to 10 μM LPA (Sigma) was added to each well, and it was confirmed that rises in intracellular Ca^2+ concentration occurred. LPA dose-dependently.

[2] = tested on: Normal human knee articular cartilage cells (NHAC-kn); experiment: Inflammatory cytokine gene expression induction by LPA in human articular cartilage cells; settings: 10 μM LPA, n=4
Method: EDG2 is a GPCR having lysophosphatidic acid (LPA) as a ligand thereof. For LPA, four receptors, including EDG2, have been reported (EDG2, EDG4, EDG7 and GPR23). To analyze the tissue distributions of these four LPA receptors, an expression quantitation analysis by quantitative real-time PCR in various human tissues was performed. On 500 ng of total RNA of each of various human tissues (Human Total RNA Master Panel, Clontech), reverse transcription was performed using Multiscribe reverse transcriptase (Applied biosystems) and a random hexamer, whereby a cDNA was obtained. Quantitation of the LPA receptor genes was performed using QuantiTect STBR Green PCR (Qiagen) on the ABI PRISM 7700 sequence detection system (Applied biosystems) as directed in the documentation attached. The number of copies of each gene was calculated using a working curve. […]
The inflammatory cytokine expression induction reaction of LPA, which is a ligand of EDG2, in human articular cartilage cells was analyzed. […] Twelve hours after the medium replacement, the cells were stimulated with 10 μM LPA; 0, 2, 4, 8, 12 and 24 hours later, total RNA was extracted using ISOGEN (Nippon Gene), and the amounts expressed of TNFA and IL1B, which are inflammatory cytokine genes, were quantified by a method in accordance with Example 10. […]

EDG2, sequence (Q92633 whole entry): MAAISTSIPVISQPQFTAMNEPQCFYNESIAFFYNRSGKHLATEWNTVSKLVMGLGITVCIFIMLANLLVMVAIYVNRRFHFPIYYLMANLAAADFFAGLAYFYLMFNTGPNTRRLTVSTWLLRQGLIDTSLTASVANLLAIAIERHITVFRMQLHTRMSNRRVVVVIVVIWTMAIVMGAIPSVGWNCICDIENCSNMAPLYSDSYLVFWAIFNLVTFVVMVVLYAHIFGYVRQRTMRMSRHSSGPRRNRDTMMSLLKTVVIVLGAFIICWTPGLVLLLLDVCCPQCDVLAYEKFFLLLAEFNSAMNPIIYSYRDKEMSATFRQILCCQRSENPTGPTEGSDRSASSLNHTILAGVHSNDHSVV

CCCCCCCC/C=C\CCCCCCCC(=O)OC[C@@H](O)COP(=O)(O)O [LPA, 1-Oleoyl-sn-Glycero-3-Phosphate]
rise of expression of inflammatory cytokine genes (TNFA, IL1B) ([1]; 0, 0.1, 1 and 10 μM LPA, 2 hours, n=4): dose-dependently | time of peak of IL1B gene expression ([1]; 10 μM LPA, transient rise, n=4): 2 h | time of peak of MMP1 gene expression ([1]; 10 μM LPA, transient rise, n=4): 4 h | time of peak of MMP3 gene expression ([1]; 10 μM LPA, transient rise, n=4): 4 h | time of peak of MMP13 gene expression ([1]; 10 μM LPA, transient rise, n=4): 8 h | time of peak of TNFA gene expression ([1]; 10 μM LPA, transient rise, n=4): 2 h | LPA concentration at which IL1B gene expression nearly reached a plateau ([1]; dose dependency test, 2 hours): 1 µM | LPA concentration up to which TNFA gene expression rose dose-dependently ([1]; dose dependency test, 2 hours): up to 10 μM | rises in intracellular Ca2+ concentration (EDG2): dose-dependently | IL1B gene expression ([2]; 0-24 hours): no expression raising reaction was observed | rise in amount expressed of the TNFA gene ([2]; transiently, 2 hours after addition): about 2 folds
